Data reported in the kinase profiling compilation of Christmann-Franck et al. (2016).
Several values for one entry are separate records, joined by “and”; a condition that tells them apart may be missing. Identical values can stand only once.

What was measured:
Assay in all cases: radiometric filter-binding kinase assay, Kinase HotSpot
Details in all cases: compound 0.5 µM; ATP 10 µM
FGFR2 (human) = FGFR2 (human) (UniProt P21802)
PRKCB2 (human) = PRKCB2 (human) (UniProt P05771)
OXSR1 (human) = OXSR1 (human) (UniProt O95747)
RIPK2 (human) = RIPK2 (human) (UniProt O43353)
MAP3K14 (human) = MAP3K14 (human) (UniProt Q99558)
ERBB4 (human) = ERBB4 (human) (UniProt Q15303)
SYK (human) = SYK (human) (UniProt P43405)
CAMK1D (human) = CAMK1D (human) (UniProt Q8IU85)
MAP3K2 (human) = MAP3K2 (human) (UniProt Q9Y2U5)
BRAF (human) = BRAF (human) (UniProt P15056)
ULK3 (human) = ULK3 (human) (UniProt Q6PHR2)
ACVR1B (human) = ACVR1B (human) (UniProt P36896)
EPHA6 (human) = EPHA6 (human) (UniProt Q9UF33)
MAPK11 (human) = MAPK11 (human) (UniProt Q15759)
STK38 (human) = STK38 (human) (UniProt Q15208)
FER (human) = FER (human) (UniProt P16591)
TLK2 (human) = TLK2 (human) (UniProt Q86UE8)
CAMK2G (human) = CAMK2G (human) (UniProt Q13555)
CSNK1G2 (human) = CSNK1G2 (human) (UniProt P78368)
CLK4 (human) = CLK4 (human) (UniProt Q9HAZ1)
PAK2 (human) = PAK2 (human) (UniProt Q13177)
MARK3 (human) = MARK3 (human) (UniProt P27448)
PRKG1 (human) = PRKG1 (human) (UniProt Q13976)
MELK (human) = MELK (human) (UniProt Q14680)
PRKCH (human) = PRKCH (human) (UniProt P24723)
PLK3 (human) = PLK3 (human) (UniProt Q9H4B4)
VRK1 (human) = VRK1 (human) (UniProt Q99986)
MYO3B (human) = MYO3B (human) (UniProt Q8WXR4)
NEK9 (human) = NEK9 (human) (UniProt Q8TD19)
JAK3 JH1 JH2 (human) = JAK3 JH1 JH2 (human) (UniProt P52333)
GSG2 (human) = GSG2 (human) (UniProt Q8TF76)
PDGFRA (human) = PDGFRA (human) (UniProt P16234)
AURKB (human) = AURKB (human) (UniProt Q96GD4)
FGFR3 (human) = FGFR3 (human) (UniProt P22607)
DAPK2 (human) = DAPK2 (human) (UniProt Q9UIK4)
PLK2 (human) = PLK2 (human) (UniProt Q9NYY3)
RPS6KA3 KD1 KD2 (human) = RPS6KA3 KD1 KD2 (human) (UniProt P51812)
PRKACG (human) = PRKACG (human) (UniProt P22612)
CLK2 (human) = CLK2 (human) (UniProt P49760)
CDK2 CCNA2 (human) = CDK2 CCNA2 (human) (UniProt P24941+P20248)
DMPK (human) = DMPK (human) (UniProt Q09013)

PRKG1 (human), sequence (Q13976 whole entry, looked up): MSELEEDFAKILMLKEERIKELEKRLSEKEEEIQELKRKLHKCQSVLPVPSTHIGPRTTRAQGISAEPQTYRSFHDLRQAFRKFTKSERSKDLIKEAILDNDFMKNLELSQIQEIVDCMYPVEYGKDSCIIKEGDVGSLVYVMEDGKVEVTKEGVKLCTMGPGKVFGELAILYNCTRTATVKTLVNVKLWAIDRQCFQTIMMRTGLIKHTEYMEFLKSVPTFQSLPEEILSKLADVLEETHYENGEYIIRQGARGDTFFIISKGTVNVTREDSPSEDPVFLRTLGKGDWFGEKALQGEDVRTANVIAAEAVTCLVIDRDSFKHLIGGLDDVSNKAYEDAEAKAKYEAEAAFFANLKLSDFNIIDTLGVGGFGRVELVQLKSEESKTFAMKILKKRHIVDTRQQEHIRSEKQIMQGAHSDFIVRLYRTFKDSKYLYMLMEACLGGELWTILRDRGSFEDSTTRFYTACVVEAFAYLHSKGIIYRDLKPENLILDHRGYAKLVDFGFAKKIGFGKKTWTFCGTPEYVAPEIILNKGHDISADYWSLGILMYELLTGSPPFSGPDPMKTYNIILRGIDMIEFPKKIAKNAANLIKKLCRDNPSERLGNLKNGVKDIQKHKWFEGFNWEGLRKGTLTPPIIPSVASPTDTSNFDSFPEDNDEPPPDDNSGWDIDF
PAK2 (human), sequence (Q13177 whole entry, looked up): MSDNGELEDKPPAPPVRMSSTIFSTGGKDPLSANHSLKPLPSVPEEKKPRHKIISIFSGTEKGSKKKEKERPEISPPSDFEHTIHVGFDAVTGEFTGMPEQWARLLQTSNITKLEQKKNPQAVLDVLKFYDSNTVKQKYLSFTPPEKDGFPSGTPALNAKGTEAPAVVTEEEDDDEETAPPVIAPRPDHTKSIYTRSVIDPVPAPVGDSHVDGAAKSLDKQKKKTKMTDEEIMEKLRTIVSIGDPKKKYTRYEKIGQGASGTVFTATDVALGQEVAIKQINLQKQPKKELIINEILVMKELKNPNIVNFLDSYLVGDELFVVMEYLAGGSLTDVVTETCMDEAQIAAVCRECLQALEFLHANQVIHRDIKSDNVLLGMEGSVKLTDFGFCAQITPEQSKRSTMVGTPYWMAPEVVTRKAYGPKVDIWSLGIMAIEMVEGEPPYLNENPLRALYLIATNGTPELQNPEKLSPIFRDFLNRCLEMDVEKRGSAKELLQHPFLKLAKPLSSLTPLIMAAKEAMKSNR
MAP3K14 (human), sequence (Q99558 whole entry, looked up): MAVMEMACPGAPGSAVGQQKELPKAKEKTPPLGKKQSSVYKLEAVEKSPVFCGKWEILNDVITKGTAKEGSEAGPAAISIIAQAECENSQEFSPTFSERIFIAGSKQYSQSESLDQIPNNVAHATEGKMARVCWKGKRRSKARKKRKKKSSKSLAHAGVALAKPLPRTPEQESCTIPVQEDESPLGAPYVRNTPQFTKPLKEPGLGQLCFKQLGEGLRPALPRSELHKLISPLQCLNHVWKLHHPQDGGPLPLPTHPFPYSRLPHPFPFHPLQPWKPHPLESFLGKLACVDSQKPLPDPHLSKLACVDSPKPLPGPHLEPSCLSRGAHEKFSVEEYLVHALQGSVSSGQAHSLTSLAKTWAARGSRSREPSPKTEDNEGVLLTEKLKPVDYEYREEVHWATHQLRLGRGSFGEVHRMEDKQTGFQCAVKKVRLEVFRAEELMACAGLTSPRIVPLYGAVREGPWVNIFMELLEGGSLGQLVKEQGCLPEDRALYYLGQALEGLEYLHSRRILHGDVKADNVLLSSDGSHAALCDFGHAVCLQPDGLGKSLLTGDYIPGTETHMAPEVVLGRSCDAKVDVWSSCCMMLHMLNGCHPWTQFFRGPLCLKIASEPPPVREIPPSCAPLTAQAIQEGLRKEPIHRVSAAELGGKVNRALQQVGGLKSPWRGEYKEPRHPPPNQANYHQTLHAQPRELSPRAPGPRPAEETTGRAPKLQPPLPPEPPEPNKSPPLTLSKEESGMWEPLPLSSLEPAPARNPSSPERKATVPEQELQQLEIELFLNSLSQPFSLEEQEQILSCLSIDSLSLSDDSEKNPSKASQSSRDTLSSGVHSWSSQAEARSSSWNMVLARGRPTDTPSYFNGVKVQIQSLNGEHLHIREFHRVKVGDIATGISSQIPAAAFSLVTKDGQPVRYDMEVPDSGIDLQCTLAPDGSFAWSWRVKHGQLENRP
CDK2 CCNA2 (human), sequence (P20248 whole entry, looked up, other chains not shown): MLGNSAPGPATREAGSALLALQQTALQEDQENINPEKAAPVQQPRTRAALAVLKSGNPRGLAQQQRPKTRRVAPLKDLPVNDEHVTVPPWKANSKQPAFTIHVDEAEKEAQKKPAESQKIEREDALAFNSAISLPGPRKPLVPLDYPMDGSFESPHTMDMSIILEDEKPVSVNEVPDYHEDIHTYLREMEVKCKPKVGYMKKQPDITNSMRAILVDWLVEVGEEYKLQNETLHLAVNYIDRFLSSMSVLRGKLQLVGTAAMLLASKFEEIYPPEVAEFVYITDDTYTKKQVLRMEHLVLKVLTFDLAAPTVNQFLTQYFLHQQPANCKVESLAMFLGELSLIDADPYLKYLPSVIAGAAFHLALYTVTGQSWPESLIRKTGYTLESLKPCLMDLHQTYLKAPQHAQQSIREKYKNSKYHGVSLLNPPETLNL
EPHA6 (human), sequence (Q9UF33 whole entry, looked up): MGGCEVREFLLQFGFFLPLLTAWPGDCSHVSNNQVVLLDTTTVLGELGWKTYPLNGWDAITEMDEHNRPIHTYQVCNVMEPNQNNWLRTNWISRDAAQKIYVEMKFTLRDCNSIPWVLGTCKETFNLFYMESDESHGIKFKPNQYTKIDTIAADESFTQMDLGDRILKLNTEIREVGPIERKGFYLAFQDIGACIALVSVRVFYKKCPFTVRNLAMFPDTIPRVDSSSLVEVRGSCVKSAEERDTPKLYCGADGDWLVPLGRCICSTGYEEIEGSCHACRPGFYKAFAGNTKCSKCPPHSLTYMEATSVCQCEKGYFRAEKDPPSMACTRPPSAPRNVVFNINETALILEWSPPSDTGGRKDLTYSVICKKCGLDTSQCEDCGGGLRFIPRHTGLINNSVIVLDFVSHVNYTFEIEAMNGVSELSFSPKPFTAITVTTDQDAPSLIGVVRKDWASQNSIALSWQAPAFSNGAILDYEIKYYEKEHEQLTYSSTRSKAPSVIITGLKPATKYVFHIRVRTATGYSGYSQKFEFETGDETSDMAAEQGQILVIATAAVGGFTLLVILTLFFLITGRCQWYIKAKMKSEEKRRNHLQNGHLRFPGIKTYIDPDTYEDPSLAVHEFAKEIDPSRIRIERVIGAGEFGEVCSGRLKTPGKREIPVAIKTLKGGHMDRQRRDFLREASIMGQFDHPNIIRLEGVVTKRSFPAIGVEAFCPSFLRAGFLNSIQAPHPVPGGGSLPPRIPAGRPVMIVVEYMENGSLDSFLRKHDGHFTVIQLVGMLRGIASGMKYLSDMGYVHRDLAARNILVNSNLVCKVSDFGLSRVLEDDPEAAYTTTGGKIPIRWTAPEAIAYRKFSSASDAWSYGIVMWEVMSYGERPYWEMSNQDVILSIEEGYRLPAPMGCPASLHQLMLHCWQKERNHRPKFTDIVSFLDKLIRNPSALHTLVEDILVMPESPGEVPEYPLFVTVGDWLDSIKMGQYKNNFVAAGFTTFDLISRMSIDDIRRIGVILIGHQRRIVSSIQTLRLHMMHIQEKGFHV
PRKACG (human), sequence (P22612 whole entry, looked up): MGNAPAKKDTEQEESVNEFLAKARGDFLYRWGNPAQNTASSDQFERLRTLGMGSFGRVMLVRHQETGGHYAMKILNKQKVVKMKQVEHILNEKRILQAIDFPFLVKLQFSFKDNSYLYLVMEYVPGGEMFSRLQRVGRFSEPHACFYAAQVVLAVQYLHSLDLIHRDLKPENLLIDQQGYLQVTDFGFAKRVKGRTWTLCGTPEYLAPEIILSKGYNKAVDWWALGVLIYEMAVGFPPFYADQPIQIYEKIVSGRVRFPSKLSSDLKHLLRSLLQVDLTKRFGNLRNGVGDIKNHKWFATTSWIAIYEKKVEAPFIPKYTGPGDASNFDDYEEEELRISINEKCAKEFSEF
CLK4 (human), sequence (Q9HAZ1 whole entry, looked up): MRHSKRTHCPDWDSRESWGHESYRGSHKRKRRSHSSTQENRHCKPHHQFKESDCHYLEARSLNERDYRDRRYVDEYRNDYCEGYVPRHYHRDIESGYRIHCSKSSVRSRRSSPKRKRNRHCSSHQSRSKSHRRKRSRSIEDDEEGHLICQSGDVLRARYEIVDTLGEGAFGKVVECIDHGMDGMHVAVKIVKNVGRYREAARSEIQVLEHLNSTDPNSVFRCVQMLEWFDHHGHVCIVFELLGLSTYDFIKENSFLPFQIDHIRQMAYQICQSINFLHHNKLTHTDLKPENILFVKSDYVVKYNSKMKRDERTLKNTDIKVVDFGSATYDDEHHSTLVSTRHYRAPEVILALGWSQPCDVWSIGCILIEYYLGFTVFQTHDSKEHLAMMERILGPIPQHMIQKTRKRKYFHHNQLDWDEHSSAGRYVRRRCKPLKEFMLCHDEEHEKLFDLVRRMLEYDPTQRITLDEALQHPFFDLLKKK
OXSR1 (human), sequence (O95747 whole entry, looked up): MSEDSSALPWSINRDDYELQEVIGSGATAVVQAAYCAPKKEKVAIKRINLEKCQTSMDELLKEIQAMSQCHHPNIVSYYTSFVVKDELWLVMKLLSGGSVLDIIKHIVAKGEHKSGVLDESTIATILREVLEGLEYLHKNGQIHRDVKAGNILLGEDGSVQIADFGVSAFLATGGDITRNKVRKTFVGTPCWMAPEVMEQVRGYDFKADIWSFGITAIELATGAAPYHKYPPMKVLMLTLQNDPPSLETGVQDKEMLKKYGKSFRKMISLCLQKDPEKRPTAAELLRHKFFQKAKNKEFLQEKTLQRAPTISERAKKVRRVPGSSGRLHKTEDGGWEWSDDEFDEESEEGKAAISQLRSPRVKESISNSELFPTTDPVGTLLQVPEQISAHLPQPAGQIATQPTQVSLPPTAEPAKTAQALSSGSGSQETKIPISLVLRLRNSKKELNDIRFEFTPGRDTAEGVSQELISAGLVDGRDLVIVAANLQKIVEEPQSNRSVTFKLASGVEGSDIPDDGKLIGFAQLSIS

CN(C)C[C@H]1CCn2c(c(C3=C(c4cn(C)c5ccccc45)C(=O)NC3=O)c3ccccc32)C1
residual activity (FGFR2 (human)): 104%
residual activity (PRKCB2 (human)): 2.29%
residual activity (OXSR1 (human)): 98.4%
residual activity (RIPK2 (human)): 94.4%
residual activity (MAP3K14 (human)): 105%
residual activity (ERBB4 (human)): 84.3%
residual activity (SYK (human)): 99.6%
residual activity (CAMK1D (human)): 101%
residual activity (MAP3K2 (human)): 94.6%
residual activity (BRAF (human)): 95.2%
residual activity (ULK3 (human)): 88.9%
residual activity (ACVR1B (human)): 98.2%
residual activity (EPHA6 (human)): 100%
residual activity (MAPK11 (human)): 109%
residual activity (STK38 (human)): 96.7%
residual activity (FER (human)): 69.2%
residual activity (TLK2 (human)): 88.4%
residual activity (CAMK2G (human)): 100%
residual activity (CSNK1G2 (human)): 97%
residual activity (CLK4 (human)): 111%
residual activity (PAK2 (human)): 85.1%
residual activity (MARK3 (human)): 92.4%
residual activity (PRKG1 (human)): 81% and 88.8%
residual activity (MELK (human)): 96.4%
residual activity (PRKCH (human)): 7.84%
residual activity (PLK3 (human)): 100%
residual activity (VRK1 (human)): 105%
residual activity (MYO3B (human)): 87.9%
residual activity (NEK9 (human)): 97.6%
residual activity (JAK3 JH1 JH2 (human)): 89.4%
residual activity (GSG2 (human)): 100%
residual activity (PDGFRA (human)): 93.1%
residual activity (AURKB (human)): 96.3%
residual activity (FGFR3 (human)): 96.3%
residual activity (DAPK2 (human)): 90.4%
residual activity (PLK2 (human)): 99.9%
residual activity (RPS6KA3 KD1 KD2 (human)): 1.81%
residual activity (PRKACG (human)): 108%
residual activity (CLK2 (human)): 85.9%
residual activity (CDK2 CCNA2 (human)): 76.2%
residual activity (DMPK (human)): 106%

O=C1NC(=O)/C(=C\c2ccc3nccnc3c2)S1
residual activity (FGFR2 (human)): 95%
residual activity (PRKCB2 (human)): 103%
residual activity (OXSR1 (human)): 98.4%
residual activity (RIPK2 (human)): 76.8%
residual activity (MAP3K14 (human)): 101%
residual activity (ERBB4 (human)): 99.4%
residual activity (SYK (human)): 98%
residual activity (CAMK1D (human)): 102%
residual activity (MAP3K2 (human)): 108%
residual activity (BRAF (human)): 95.1%
residual activity (ULK3 (human)): 102%
residual activity (ACVR1B (human)): 109%
residual activity (EPHA6 (human)): 82.4%
residual activity (MAPK11 (human)): 99.2%
residual activity (STK38 (human)): 99.6%
residual activity (FER (human)): 96.2%
residual activity (TLK2 (human)): 95.2%
residual activity (CAMK2G (human)): 101%
residual activity (CSNK1G2 (human)): 83.4%
residual activity (CLK4 (human)): 47.5%
residual activity (PAK2 (human)): 98.4%
residual activity (MARK3 (human)): 94.3%
residual activity (PRKG1 (human)): 113% and 98.3%
residual activity (MELK (human)): 90.7%
residual activity (PRKCH (human)): 89.7%
residual activity (PLK3 (human)): 97.7%
residual activity (VRK1 (human)): 94.9%
residual activity (MYO3B (human)): 83.8%
residual activity (NEK9 (human)): 111%
residual activity (JAK3 JH1 JH2 (human)): 97.2%
residual activity (GSG2 (human)): 38.8%
residual activity (PDGFRA (human)): 106%
residual activity (AURKB (human)): 101%
residual activity (FGFR3 (human)): 97.3%
residual activity (DAPK2 (human)): 139%
residual activity (PLK2 (human)): 95.7%
residual activity (RPS6KA3 KD1 KD2 (human)): 101%
residual activity (PRKACG (human)): 99.6%
residual activity (CLK2 (human)): 74%
residual activity (CDK2 CCNA2 (human)): 99.7%
residual activity (DMPK (human)): 112%
